For one data set, the system named is HIV-1 NL4-3 (X4). The experiment in a line: HIV infection assay, Tat-regulated luciferase reporter in TZM-bl cells, CXCR4-using strain. The format is cell-based. To be noted: replication of HIV-1 NL4-3 (X4) in TZM-bl cells, mean ± SEM, read-out: Anti-HIV Activity IC50 NL4-3 (X4). The source says:
(§1) Buffy coat preparations from healthy donors were obtained from the Blood Bank in Leuven, Belgium. For the chemokine binding studies, peripheral blood mononuclear cells (PBMCs) activated with phytohemagglutinin (PHA; Sigma, Belgium) were used. Human T-lymphocytic SUP-T1 cells and TZM-bl cells were obtained from the American Type Culture Collection (Rockville, MD) and maintained in RPMI-1640 supplemented with 10% foetal bovine serum (FBS). Human glioblastoma U87.MG and U87.CD4 cells were kindly provided by Dr. D. Littman and used to generate cells expressing CXCR4 or CCR5 [48]. The fluorescent chemokines CXCL12^AF647 and CCL5^AF647 were purchased from Almac. […]
(§2) TZM-bl cells were seeded in transparent 96-well plates at 1 × 10^4 cells per well in DMEM (Dulbecco’s modified Eagle medium; Life Technologies, Waltham, MA, USA) with 10% FBS and 10 mM HEPES. […] After 48 h of incubation, the assay plates were analysed. […] The luminescent signal of the lysed cell suspension was analysed in white 96-well plates on a Spectra-Max L luminescence microplate reader (Molecular Devices, Sunnyvale, CA, USA) after a 10 min incubation period in the dark. Luciferase activity induced by HIV-1 Tat protein expression was measured as an assessment of the amount of HIV replication. […]

For the next data set, the system named is HIV-1 BaL (R5). The experiment in a line: microbe, parasite or virus in culture. To be noted: read-out: Anti-HIV Activity IC50 BaL (R5).
From the text: as §1, §2

Data set [1] is described as follows: Cellular cytotoxicity, microscopic evaluation and MTS assay. The format is cell-based, human. Conditions: human, PHA-stimulated PBMCs, MTS, read-out: Toxicity CC50 PMBCs. The source says:
(§3) Buffy coat preparations from healthy donors were obtained from the Blood Bank in Leuven, Belgium. For the chemokine binding studies, peripheral blood mononuclear cells (PBMCs) activated with phytohemagglutinin (PHA; Sigma, Belgium) were used. Human T-lymphocytic SUP-T1 cells and TZM-bl cells were obtained from the American Type Culture Collection (Rockville, MD) and maintained in RPMI-1640 supplemented with 10% foetal bovine serum (FBS). Human glioblastoma U87.MG and U87.CD4 cells were kindly provided by Dr. D. Littman and used to generate cells expressing CXCR4 or CCR5 [48]. The fluorescent chemokines CXCL12^AF647 and CCL5^AF647 were purchased from Almac. […] HIV-1 NL4-3 (CXCR4-using, X4) and HIV-1 BaL (CCR5-using, R5) were obtained through the AIDS Research and Reference Reagent Program (Division of AIDS, NIAID, NIH).
(§4) Cytotoxicity of the compounds was evaluated after 48 h of incubation at 37 °C in PHA-stimulated PBMCs (5 × 10^5 cells per well in culture medium). Each condition was tested in duplicate. Cytotoxicity was evaluated microscopically, and in addition, the cell viability was assessed using the colorimetric CellTiter 96 AQueous One Solution Cell Proliferation Assay (Promega, Fitchburg, WI, USA), which is based on the reduction of the tetrazolium salt MTS [3-(4,5-dimethylthiazol-2-yl)-5-(3-carboxymethoxyphenyl)-2-(4-sulfophenyl)-2H-tetrazolium] to formazan by metabolically active cells. Absorbance at 490 nm was measured with the Versa-Max ELISA microplate reader (Molecular Devices, Sunnyvale, CA, USA). The cytotoxic concentration 50 (CC50) of each compound was calculated based on the absorbance of negative (i.e., cells without compound) and positive (i.e., only culture medium) control samples.
(§5) The cellular cytotoxicity of all compounds was evaluated in PHA-stimulated PBMCs.
A general note: Tetrazolium dyes change colour on reduction, which living cells bring about.

Another data set has as its system PHA-stimulated PBMCs. Described as above. In kind it is cell-based, human. Conditions: 48 h, MTS, read-out: Toxicity CC50 PMBCs.
From the text: as §3, §4, §5

Data set [2] concerns the target T1, CCR5 (Homo sapiens, UniProt P51681).
T1 construct: endogenous in cells
The experiment in a line: CCL5^AF647 chemokine binding inhibition assay in PBMCs. To be noted: AF647-labelled CCL5 in PBMCs; mean ± SEM; read-out: Competition Binding Assay IC50 CCL5. How it is done: Human PBMCs were washed once with assay buffer (Hanks’ balanced salt solution with 20 mM HEPES buffer and 0.2% bovine serum albumin, pH 7.4) and then incubated for 15 min at room temperature with the sample diluted in assay buffer at the indicated concentrations. Subsequently, CXCL12^AF647 (25 ng/mL) or CCL5^AF647 (50 ng/mL) was added to the compound-incubated cells. The cells were incubated for 30 min at room temperature. Thereafter, the cells were washed twice in assay buffer, fixed in 1% paraformaldehyde in PBS, and analysed on the FL4 channel of a FACSCalibur flow cytometer equipped with a 635 nm red diode laser (Becton Dickinson, San Jose, CA, USA). The percentage of inhibition of CXCL12^AF647 or CCL5^AF647 binding was calculated according to the formula: [1 − ((MFI − MFINC)/(MFIPC − MFINC))] × 100, where MFI is the mean fluorescence intensity of the cells incubated with CXCL12^AF647 or CCL5^AF647 in the presence of the inhibitor, MFINC is the mean fluorescence intensity measured in the negative control (i.e., autofluorescence of unlabelled cells), and MFIPC is the mean fluorescence intensity of the positive control (i.e., cells exposed to CXCL12^AF647 or CCL5^AF647 alone).
Binding affinity and selectivity towards CXCR4 were further evaluated through competition binding assays using natural chemokine ligands, tagged with Alexa Fluor 647, as previously reported. […]

Data set [3] concerns the target T1, CCR5. The experiment in a line: CCL3L1-induced intracellular calcium mobilisation in CCR5-transfected U87 cells (FLIPR). In kind it is cell-based. To be noted: mean ± SEM, read-out: Ca^2+ Signalling Assay IC50 CCL3L1. How it is done:
CXCR4- or CCR5-positive U87 glioblastoma/astrocytoma cells were loaded with the fluorescent calcium indicator Fluo-3 acetoxymethyl (Molecular Probes) at 4 µM in the assay buffer (Hanks’ balanced salt solution with 20 mM HEPES buffer and 0.2% bovine serum albumin, pH 7.4) for 45 min at room temperature. After thorough washing with the assay buffer, cells were pre-incubated for 10 min at 37 °C in the same buffer with the compounds of interest. The intracellular calcium mobilisation in response to CXCL12 (CXCR4 chemokine ligand) or CCL3L1 (CCR5 chemokine ligand) was then measured at 37 °C by monitoring the fluorescence as a function of time simultaneously in all the wells by using a fluorometric imaging plate reader (FLIPR; Molecular Devices, Sunnyvale, CA, USA).
The potency of the different metal complexes was investigated in a functional downstream receptor signalling assay. The inhibitory effect of the tested compounds was examined by Ca^2+ mobilisation studies with the natural ligands CXCL12 and CCL3L1 for the chemokine receptors CXCR4 and CCR5, respectively. The Ca^2+ ions released from the endoplasmic reticulum were measured over time in CXCR4- or CCR5-transfected U87 glioblastoma cells via their specific interaction with the fluorescent Ca^2+ indicator Fluo-3 [63].
For orientation: Calcium assays in cells follow changes in intracellular calcium, usually with a dye or a luminescent sensor.

Where two headings read alike, the source gives them in different places.

T1 sequence (P51681 whole entry): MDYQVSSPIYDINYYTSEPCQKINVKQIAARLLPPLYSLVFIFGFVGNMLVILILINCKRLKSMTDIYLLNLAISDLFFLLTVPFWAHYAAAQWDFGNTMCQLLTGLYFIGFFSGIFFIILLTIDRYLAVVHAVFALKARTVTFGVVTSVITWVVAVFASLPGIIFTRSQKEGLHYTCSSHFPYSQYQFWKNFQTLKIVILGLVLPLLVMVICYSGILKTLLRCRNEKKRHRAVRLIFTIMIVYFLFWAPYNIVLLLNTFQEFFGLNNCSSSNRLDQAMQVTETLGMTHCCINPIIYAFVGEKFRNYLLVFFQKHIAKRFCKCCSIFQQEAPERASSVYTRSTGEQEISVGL

Consider `c1cc(CN2CCCNCCNCCCNCC2)ccc1CN1CCCNCCNCCCNCC1` [AMD3100, reference compound], for which the IC50 with HIV-1 NL4-3 (X4) (Human immunodeficiency virus 1, NL43) was 0.00042 ± 0.00014 µM; with HIV-1 BaL (R5) (Human immunodeficiency virus 1, BAL, TZM-bl), more than 20 µM; at CCR5 [2] it was more than 1 µM; on CCR5 [3], more than 20 µM. Moreover, in data set [1], the CC50 at 48 h was not below 100 µM. Also, the CC50 in the data set on PHA-stimulated PBMCs is more than 100 µM.

For `[Cu+2].[Cu+2].c1cc(CN2CCCNCCNCCCNCC2)ccc1CN1CCCNCCNCCCNCC1` [Cu2L^1], in the data set with PHA-stimulated PBMCs, the CC50 is not below 100 µM.

As for Maraviroc [reference compound], the IC50 with HIV-1 NL4-3 (X4) was more than 20 µM; in the data set with HIV-1 BaL (R5) (replication of HIV-1 BaL (R5) in TZM-bl cells, mean ± SEM) it was 0.0029 ± 0.0012 µM.

Usually IC50 stands for the concentration that inhibits the measured activity by half. By CC50 is commonly meant the concentration at which the toxic effect on the cells reaches its halfway point.

Source of the values: article PMC11360128, “Rigid Macrocycle Metal Complexes as CXCR4 Chemokine Receptor Antagonists: Influence of Ring Size” (Pharmaceutics, 2024).
